Ends that are not written are not given here.
Experiments:
[1] = test system: Epidermal cancer cells (A431); assay: Observation under fluorescent microscope of A431 cells before and after 690 nm laser exposure; type: cell-based; details: 20 μg added, 10 minutes at 37° C., 690 nm laser at 50 J
Experimental: Epidermal cancer cells (A431) were placed at 10,000 cells/mL into a 3.5 mm dish and incubated for 1 day. Subsequently, 20 μg of IF7C-IR700 or IR700 was added to the respective dish and incubation was performed for 10 minutes at 37° C.
Exposure to a 690 nm laser was performed at 50 J, and the A431 cells before and after exposure were observed under a fluorescent microscope (IX61 or IX81; Olympus America). […] From this, it can be inferred that IF7C-IR700 is internalized by cells and undergoes a reaction, causing the cells to shrink.

[2] = test system: xenograft model animals implanted with A431; assay: Mouse experiment: fluorescent intensity monitoring of pharmaceutical agent accumulation in A431 xenograft model animals; type: in vivo; details: A431 xenograft mice, 0.033 μmol, Pearl Imager, monitored up to 180 min
Experimental: Five xenograft model animals implanted with A431 were treated with 0.033 μmol IF7C-IR700, and the fluorescent intensity of body surface, tumor and liver of the mice was monitored at 10 min intervals for up to 60 min and at 30 min intervals for up to 180 min with a Pearl Imager (LI-COR Bioscience) to check for accumulation of pharmaceutical agent. The fluorescent intensity over the tumor reached a maximum at 60 min, so exposure to therapeutic light was performed 60 min after pharmaceutical agent injection to carry out NIR-PIT with IF7C-IR700. For the PIT, exposure to NIR light was performed under conditions which enable cleavage of the IR700, at a wavelength of 680 nm to 690 nm and a dose of 10 J/cm^2.

Substance: IF7C-IR700: IF7-C peptide (IFLLWQRC, SEQ ID NO: 6) conjugated with IR700 maleimide via the cysteine SH residue (IFLLWQRC(IR700 maleimide))
- cell shrinkage observed under fluorescent microscope after exposure [1]: the cells had shrunk
- time at which fluorescent intensity over the tumor reached a maximum [2]: 60 min

From patent publication US20220152204A1, “PHOTOIMMUNOTHERAPY AND PHARMACEUTICAL AGENT USED THEREFOR” (SHIMADZU CORPORATION, priority 2019, published 2022)
